# Test results published in patent US20240374655A1, “INTESTINAL MICROBIOTA AND GVHD” (Memorial Sloan-Kettering Cancer Center, priority 2014, published 2024).
# Entries after “also recorded” stand apart in the source; their conditions may differ.
# How the values were obtained:
# [1] = system: intestinal microbiota (Clostridiales, Enterococcus); experiment: Flora composition (16S rRNA sequencing of stool) after antibiotic treatment of healthy mice; assay type: in vivo, C57BL/6 mice
# Experimental: (§1) FIGS. 16A-16J Imipenem treatment, compared to aztreonam treatment, suppresses anaerobic commensals and elevates GVHD severity in mice. (A) Flora composition analysis using 16S rRNA sequencing prior to and after treatment with the indicated antibiotics in healthy C57BL/6 mice. Mice were treated with subcutaneous (SC) injections of each antibiotic twice a day for two days (500 mg/kg for pip/tazo and 100 mg/kg for others) and stool samples were collected the following day. Values represent mean±SEM (n=3-4). *, P<0.05; **, P<0.01; ****, P<0.0001. Data are representative of two independent experiments. (B to J) Lethally irradiated 129S1 recipients were transplanted with MHC matched C57BL/6 T-cell depleted bone marrow (TCD-BM) cells and 1×10^6 C57BL/6 T cells. Control mice received TCD-BM only. Recipients were treated with imipenem or aztreonam (100 mg/kg, SC, 3 times a week from day 10 to day 24 following allo-HSCT). (B) Comparison of overall survival, with combined data from three independent experiments (n=15-43). ****, P<0.0001. (C) Mice with GVHD treated with antibiotics were sacrificed on day 21 and GVHD histology scores in target organs were quantified by a blinded pathologist. Data are combined from three independent experiments (n=5-20). *, P<0.05. (D) Stool samples obtained from mice treated with imipenem or aztreonam similarly to those in B were collected on day 21 and analyzed by 16S rRNA gene sequencing, followed by principal coordinate analysis of weighted and normalized UniFrac distances. (E and F) Differential taxonomic abundance between aztreonam treated and imipenem treated recipients was analyzed by (E) linear discriminate analysis coupled with effect size measurements (LEfSe) and (F) by LEfSe projected as a cladogram. Data are representative from more than five independent experiments in D to F. (G and H) Comparisons of bacterial abundance at the phylogenetic levels of (G) order, and (H) genus are shown. Data are combined from 6 independent experiments (n=32-36). ***, P<0.001. (I) Stool samples collected from mice with GVHD treated with antibiotics were collected on day 21, and evaluated by metagenomic shotgun sequence analysis, comparison of bacterial species abundance determined by taxonomy. Numbers 1 through 6 along the x-axis represent the individual subjects. (J) Principal component analysis of quantification of sequence reads from KEGG gene orthologs comparing samples from mice treated with aztreonam and imipenem.
# To further explore causality and mechanisms of the effects of antibiotics with anaerobic activity on GVHD, we turned to experiments in mice. […] Mice were treated by subcutaneous (SC) injections of each antibiotic twice a day for two days (500 mg/kg for pip/tazo and 100 mg/kg for others) and stool samples were collected, followed by 16S rRNA gene amplification and sequence analysis.
# [2] = system: Clostridiales; experiment: Change in Clostridiales abundance in paired stool samples of allo-HSCT patients before and after starting antibiotics; assay type: in vivo, human; conditions: before vs after starting the antibiotic; compared to aztreonam
# From the text: (§2) (A) A retrospective cohort was identified of 283 adult patients who received non-T cell depleted allo-HSCT at our center from 1994 to 2013 and received antibiotics for neutropenic fever. Patients were stratified by exposure to antibiotics with significant activity against anaerobes. Outcomes indicated were depicted by Kaplan-Meier plots and curves compared by the logrank test. (B to G) Six representative clinical cases with time courses depicted of fecal microbiota composition and administration of antibiotic treatments during the course of allo-HSCT. […] (H) Change in abundance of Clostridiales in paired fecal samples from patients undergoing allo-HSCT collected prior to and following treatment with the indicated antibiotics.
# For each stool specimen, DNA was purified using a phenol-chloroform extraction technique with mechanical disruption (bead-beating) based on a previously described protocol (60). Samples were analyzed using the 454 GS FLX Titanium platform to sequence the V1-V3 region of the bacterial 16S rRNA gene or were alternatively analyzed using the Illumina MiSeq platform to sequence the V4-V5 region of the 16S rRNA gene. Sequence data were compiled and processed using mothur version 1.34 (61), screened and filtered for quality (62). Operational taxonomic units (OTUs) were classified to the species level (63) using a modified form of the Greengenes reference database (64). Principal component analysis was performed upon a weighted and normalized Unifrac (65) distance matrix of OTU abundance in R software. Data from this study has been stored in the NCBI Sequence Read Archive (see url: www.ncbi.nlm.nih.gov/sra).
# HSCT patients were on intestinal bacterial composition. In 2009, our center began to prospectively collect weekly stool samples from patients undergoing allo-HSCT. From this specimen bank, we identified paired stool samples collected from patients prior to as well as following initiation of specific antibiotics during the course of allo-HSCT. […]
# [3] = metronidazole added to ciprofloxacin; cited from earlier work
# [4] = Administration of SCFA to mitigate murine GVHD (preliminary experiments); assay type: in vivo, mice; conditions: via drinking water (butyrate also via enema); data not shown
# Experimental: Preliminary experiments were done to test the impact of administration of SCFA on murine GVHD. […] Sodium acetate (150 mM) will be delivered via the drinking water of mice beginning 2 weeks prior to BMT. Mice will then be irradiated and transplanted with continued supplementation of sodium acetate. Outcomes that will be evaluated in mice include GVHD clinical scores, survival, and day 14 and 28 tissue pathology. Kaplan-Meier curves will display the overall survival for the two groups. In addition, the area under the curve (AUC) will summarize the weekly total GVHD score from the time of infusion to week 13 for each mouse. Mice will be euthanized to evaluate for pathological evidence of GVHD, as well as to quantify and characterize large intestinal Tregs and alloreactive effector T cells by flow cytometry on days 14 and 28.
# [5] = Retrospective cohort of 283 allo-HSCT patients treated for neutropenic fever: GVHD-related mortality by antibiotic type; assay type: in vivo, human; conditions: compared to antibiotics with reduced activity against anaerobes (aztreonam, cefepime)
# From the text: as §2
# In one study, subjects analyzed retrospectively for impact of antibiotics on clinical outcomes consisted of 283 adult patients undergoing all-HSCT at Memorial Sloan Kettering Cancer Center (MSKCC) from 1994 to 2013. […]
# GVHD was diagnosed clinically, confirmed pathologically by biopsy whenever possible, and classified according to historical consensus criteria as described previously (see Rowlings P A, Przepiorka D, Klein J P, et al. IBMTR Severity Index for grading acute graft-versus host disease: retrospective comparison with Glucksberg grade. Br J Haematol. 1997). […] Disease risk was determined according to the ASBMT RFI 2014 Disease Classification. […]
# [6] = Antibiotic treatment in MHC-matched minor antigen-mismatched allo-HSCT GVHD model (C57BL/6 into 129S1); assay type: in vivo
# Experimental: as §1, with “Data are representative from more than five independent experiments in D to F. (G and H) Comparisons of bacterial abundance at the phylogenetic levels of (G) order, and (H) genus are shown. Data are combined from 6 independent experiments (n=32-36). ***, P<0.001.” left out, “Numbers 1 through 6 along the x-axis represent the individual subjects.” left out
# (A to G) Lethally irradiated 129S1 recipients were transplanted with C57BL/6 TCD-BM cells with 1×10^6 C57BL/6 T cells. […] (A) Colonic lamina propria-infiltrating leukocytes from recipients were analyzed on day 21 by flow cytometry. […] (C) Lamina propria-infiltrating leukocytes from the colon on day 21 were enriched for CD11b and CD11e simultaneously using a mixture of magnetic beads and IL-23 transcripts were quantified by real time PCR. […] (D) Immunofluorescent staining was used to quantify pSTAT3, CD3, and DAPI positive cells in colonic tissue collected on day 21. […]
# [7] = 100 mg/kg SC twice a day for two days
compound,measurement,setting,value
Cc1ncc([N+](=O)[O-])n1CCO [metronidazole],Abundance of Clostridiales in stool,[1]; [7],significantly reduced
same,Abundance of Enterococcus in stool,[1]; [7],increased
same,Change in Clostridiales abundance in stool of patients,[2],significantly lower abundances of Clostridiales
same,Acute GVHD,[3],significant reduction in acute GVHD
CC(=O)O [acetate],Benefit on murine GVHD,[4],notable benefit
"C[C@@H](O)[C@H]1C(=O)N2C(C(=O)O)=C(SCCN=CN)C[C@H]12 [imipenem, imipenem-cilastatin]",GVHD-related mortality,[5],increased GVHD-related mortality
same,Mortality / overall survival,"[6]; 100 mg/kg SC 3 times a week from day 10, compared to aztreonam, within 2 weeks of starting treatment",significantly increased mortality; also recorded: aggravated mortality
same,Bacteria past the colonic epithelial barrier,"[6]; mouse, in vivo",dissemination of bacteria past the colonic epithelial barrier
same,"GVHD pathology in skin, liver and small intestine","[6]; mouse, in vivo",no significant differences
piperacillin-tazobactam [pip/tazo],Amplifiable bacterial DNA in stool,[1]; 500 mg/kg SC twice a day for two days,no amplifiable bacterial DNA
same,Change in Clostridiales abundance in stool of patients,[2],significantly lower abundances of Clostridiales; also recorded: more severe loss
same,GVHD-related mortality,[5],increased GVHD-related mortality
